Assays:
[1] = target: Neuronal acetylcholine receptor; alpha4/beta2 (Rattus norvegicus, UniProt P09483+P12390); assay: Binding affinity towards nAChR (alpha4-beta2) by the displacement of [3H](-)-cytisine in whole rat brain membranes.; assay type: cell membranes
[2] = target: Nicotinic acetylcholine receptor alpha3/betaX (Homo sapiens) (UniProt P11230+P17787+P30926+P32297+Q05901); assay: Maximal efficacy relative to 100 uM nicotine in Nicotinic acetylcholine receptor alpha3-betaX subtype expressing IMR-32 cells; assay type: cell-based
[3] = target: T1, Neuronal acetylcholine receptor; alpha4/beta2 (Homo sapiens, UniProt P17787+P43681); assay: Stimulation of cation efflux in human nAChR alpha4-beta2 expressing K177 cells; assay type: cell-based
T1 sequence (P17787 whole entry): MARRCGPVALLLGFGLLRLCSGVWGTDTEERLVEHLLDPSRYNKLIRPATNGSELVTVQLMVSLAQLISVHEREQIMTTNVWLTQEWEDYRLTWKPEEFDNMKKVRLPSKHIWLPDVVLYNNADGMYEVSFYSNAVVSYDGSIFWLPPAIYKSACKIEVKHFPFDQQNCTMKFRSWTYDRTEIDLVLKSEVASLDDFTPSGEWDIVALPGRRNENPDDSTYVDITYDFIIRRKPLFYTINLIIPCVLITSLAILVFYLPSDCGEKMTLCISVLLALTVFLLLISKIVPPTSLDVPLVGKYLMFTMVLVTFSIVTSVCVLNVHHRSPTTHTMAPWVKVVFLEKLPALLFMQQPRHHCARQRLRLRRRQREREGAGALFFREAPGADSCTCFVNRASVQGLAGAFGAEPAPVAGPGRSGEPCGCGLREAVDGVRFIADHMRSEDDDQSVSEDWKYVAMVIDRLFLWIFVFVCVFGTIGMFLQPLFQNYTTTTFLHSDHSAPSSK
T1 sequence (P43681 whole entry): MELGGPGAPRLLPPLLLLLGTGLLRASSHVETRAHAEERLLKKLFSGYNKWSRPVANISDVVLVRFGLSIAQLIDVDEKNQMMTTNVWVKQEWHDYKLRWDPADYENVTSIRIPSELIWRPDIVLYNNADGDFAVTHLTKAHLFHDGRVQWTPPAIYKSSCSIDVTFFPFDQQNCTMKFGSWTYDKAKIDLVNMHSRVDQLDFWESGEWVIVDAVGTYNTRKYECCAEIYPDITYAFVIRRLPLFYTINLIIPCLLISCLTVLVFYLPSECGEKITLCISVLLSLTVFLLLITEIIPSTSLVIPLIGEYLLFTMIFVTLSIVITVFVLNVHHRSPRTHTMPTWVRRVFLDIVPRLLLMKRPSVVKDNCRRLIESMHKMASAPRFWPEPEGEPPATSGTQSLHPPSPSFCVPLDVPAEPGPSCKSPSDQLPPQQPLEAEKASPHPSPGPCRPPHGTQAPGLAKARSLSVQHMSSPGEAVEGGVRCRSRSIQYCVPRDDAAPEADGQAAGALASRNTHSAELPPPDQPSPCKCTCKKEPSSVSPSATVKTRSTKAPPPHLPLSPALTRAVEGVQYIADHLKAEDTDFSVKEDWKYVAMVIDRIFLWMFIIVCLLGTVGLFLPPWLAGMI

[4] = target: T1, Neuronal acetylcholine receptor; alpha4/beta2; assay: Maximal efficacy relative to 100 uM nicotine in human nAChR alpha4-beta2 expressing K177 cells; assay type: cell-based
[5] = target: Nicotinic acetylcholine receptor alpha3/betaX; assay: Stimulation of cation efflux in Nicotinic acetylcholine receptor alpha3-betaX subtype expressing IMR-32 cells; assay type: functional, cell-based, Homo sapiens
[6] = target: T1, Neuronal acetylcholine receptor; alpha4/beta2; assay: Inhibition of cation efflux in human nAChR alpha4-beta2 expressing K177 cells; assay type: cell-based
[7] = target: T1, Neuronal acetylcholine receptor; alpha4/beta2; conditions: K177
Description: Maximal efficacy in human nAChR alpha4-beta2 expressing K177 cells

[8] = target: T1, Neuronal acetylcholine receptor; alpha4/beta2; conditions: IMR-32
Description: Maximal efficacy in nAChR subtype human alpha3betaX, expressed in IMR-32 cells

Neuronal acetylcholine receptor; alpha4/beta2 (Rattus norvegicus, UniProt P09483+P12390), sequence (P09483 whole entry): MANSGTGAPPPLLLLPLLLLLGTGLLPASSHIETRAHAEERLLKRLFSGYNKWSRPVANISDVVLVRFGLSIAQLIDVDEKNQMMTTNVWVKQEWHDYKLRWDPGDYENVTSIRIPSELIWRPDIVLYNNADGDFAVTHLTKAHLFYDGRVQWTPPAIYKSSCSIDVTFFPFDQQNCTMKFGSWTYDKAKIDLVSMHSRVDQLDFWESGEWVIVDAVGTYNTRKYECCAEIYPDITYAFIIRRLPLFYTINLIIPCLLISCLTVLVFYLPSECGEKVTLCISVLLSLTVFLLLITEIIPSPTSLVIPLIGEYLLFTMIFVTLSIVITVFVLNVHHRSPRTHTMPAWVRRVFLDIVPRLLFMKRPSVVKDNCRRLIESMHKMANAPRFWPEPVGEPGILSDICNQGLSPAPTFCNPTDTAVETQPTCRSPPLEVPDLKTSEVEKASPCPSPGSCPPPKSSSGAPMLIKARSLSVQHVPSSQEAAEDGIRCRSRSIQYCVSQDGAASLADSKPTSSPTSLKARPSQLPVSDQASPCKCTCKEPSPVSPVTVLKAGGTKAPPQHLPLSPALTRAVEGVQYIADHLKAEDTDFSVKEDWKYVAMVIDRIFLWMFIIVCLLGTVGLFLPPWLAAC
Neuronal acetylcholine receptor; alpha4/beta2 (Rattus norvegicus, UniProt P09483+P12390), sequence (P12390 whole entry): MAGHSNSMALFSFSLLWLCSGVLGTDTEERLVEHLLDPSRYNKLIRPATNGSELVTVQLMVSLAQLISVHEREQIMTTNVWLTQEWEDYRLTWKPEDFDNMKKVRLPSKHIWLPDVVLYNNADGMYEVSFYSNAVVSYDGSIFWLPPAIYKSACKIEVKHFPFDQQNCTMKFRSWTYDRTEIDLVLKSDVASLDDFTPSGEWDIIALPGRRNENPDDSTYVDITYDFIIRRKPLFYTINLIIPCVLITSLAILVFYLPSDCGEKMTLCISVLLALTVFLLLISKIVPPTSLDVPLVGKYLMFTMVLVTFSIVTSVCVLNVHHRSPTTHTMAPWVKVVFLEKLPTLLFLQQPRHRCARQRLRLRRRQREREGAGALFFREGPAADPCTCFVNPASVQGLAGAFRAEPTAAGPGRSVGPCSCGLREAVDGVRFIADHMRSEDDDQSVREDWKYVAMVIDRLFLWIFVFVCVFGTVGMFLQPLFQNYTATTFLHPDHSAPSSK

Work on CCNc1cncc(OC[C@@H]2CCCN2C)c1 yielded a Ki [1] of 0.0037 µM.
With Cc1ncccc1OC[C@@H]1CCCN1C the Ki [1] was 0.0229 µM, the Max [2] was 27.7% and the EC50 [3] was 4.8 µM. It also gave a Max [4] of 26.7% and an EC50 [5] of 18.2 µM.
CN1CCC[C@H]1COc1cncc(Br)c1 showed a Ki [1] of 0.00027 µM, an EC50 [3] of 5.95 µM and a Max [4] of 41.8%.
With CN1CCC[C@H]1COc1cccnc1Br the Ki [1] was 0.451 µM, the EC50 [3] was > 1000 µM and the Max [4] was 12.3%. For the same compound, the EC50 [5] was > 1000 µM.
CCN(CC)C(=O)c1ccncc1OC[C@@H]1CCCN1C showed a Ki [1] of 2.83 µM.
CN1CCC[C@H]1COc1cncc(N)c1 showed a Ki [1] of 0.00063 µM.
For Cc1ccc(OC[C@@H]2CCCN2C)cn1, the Ki [1] was 0.00126 µM, the EC50 [3] was 2.2 µM and the Max [4] was 54.4%. The EC50 [5] was 13.4 µM.
In the case of CCCCc1cncc(OC[C@@H]2CCCN2C)c1, the Ki [1] is reported as 0.00016 µM, the EC50 [3] is reported as > 1000 µM and the IC50 [6] is reported as 0.64 µM. For the same compound, the Max [4] was 14% and the EC50 [5] was > 1000 µM.
CN1CCC[C@H]1COc1ccc(F)nc1 showed a Ki [1] of 0.00256 µM.
In the case of CCCCCCc1cncc(OC[C@@H]2CCCN2C)c1, the Ki [1] is reported as 0.00032 µM.
CN1CCC[C@H]1COc1cccnc1[N+](=O)[O-] was tested, and the Ki [1] was 9 µM.
In the case of CCCc1cncc(OC[C@@H]2CCCN2C)c1, the Ki [1] is reported as 0.00012 µM, the EC50 [3] is reported as > 1000 µM and the IC50 [6] is reported as 2.4 µM. The Max [4] was 13% and the EC50 [5] was > 1000 µM.
With CC(C)Cc1cncc(OC[C@@H]2CCCN2C)c1 the Ki [1] was 0.00021 µM.
Work on CN1CCC[C@H]1COc1cncc(C(F)(F)F)c1 yielded a Ki [1] of 0.00183 µM.
With Cc1cncc(OC[C@@H]2CCCN2C)c1 the Ki [1] was 0.00048 µM, the EC50 [3] was 2.3 µM and the Max [4] was 77%. The EC50 [5] was 2.9 µM.
With CN1CCC[C@H]1COc1cccnc1 the Ki [1] was 0.00015 µM, the Max [2] was 73.2% and the Max [4] was 100%. The EC50 [5] was 19.4 µM.
In the case of CN1CCC[C@H]1COc1cncc([N+](=O)[O-])c1, the Ki [1] is reported as 0.00465 µM.
In the case of CSc1ncccc1OC[C@@H]1CCCN1C, the Ki [1] is reported as 0.559 µM.
In the case of CN1CCC[C@H]1COc1ccc(Br)nc1, the Ki [1] is reported as 0.00191 µM, the EC50 [3] is reported as 2.6 µM and the Max [4] is reported as 42.5%. For the same compound, the EC50 [5] was > 1000 µM.
With CN1CCC[C@H]1COc1cncc(F)c1 the Ki [1] was 0.00069 µM.
For CN1CCC[C@H]1COc1cnccc1Br, the Ki [1] was 0.028 µM, the EC50 [3] was > 1000 µM and the Max [4] was 14.1%. The EC50 [5] was > 1000 µM.
CCc1cncc(OC[C@@H]2CCCN2C)c1 showed a Ki [1] of 0.00032 µM, an EC50 [3] of 1 µM and a Max [4] of 33.7%. For the same compound, the EC50 [5] was > 1000 µM.
CN1CCC[C@H]1COc1ccc(CO)nc1 was tested, and the Ki [1] was 0.0974 µM.
Work on CN1CCC[C@H]1COc1ccc(Cl)nc1 yielded a Ki [1] of 0.00064 µM, an EC50 [3] of 1.4 µM and a Max [4] of 108%. The EC50 [5] was 27.1 µM.
Work on CN1CCC[C@H]1c1cccnc1 yielded a Max [7] of 100% and a Max [8] of 100%.
For Cc1ccncc1OC[C@@H]1CCCN1C, the Ki [1] was 0.00412 µM, the EC50 [3] was 2.1 µM and the Max [4] was 73.9%. The EC50 [5] was > 1000 µM.
In the case of CN1CCC[C@H]1COc1cccnc1I, the Ki [1] is reported as 0.606 µM.
CN1CCC[C@H]1COc1cncc(Cl)c1 was tested, and the Ki [1] was 0.0006 µM.
With CN1CCC[C@H]1COc1cc(Br)c[n+]([O-])c1 the Ki [1] was 0.0348 µM.
